Reference: EP0538469A1, “SULFONANILIDE DERIVATIVE AND MEDICINE” (NIPPON SHINYAKU COMPANY, LIMITED, priority 1990, dated 1991)
pEC50: −log10 of the molar value. Read-outs that look alike come from different tables or passages of the source. Marks after values point to notes of the source that are not given here.

Tests used:
male rabbits [1] = assay: Action to intra urethral pressure and blood pressure, administration to duodenum; format: in vivo
Experimental: (§1) The experiment was conducted using male rabbits of body weight of 1.4-3.1 kg under fasted condition. The animals were fixed at backs under uretrane(1.2g/kg s.c.) anesthesia, abdomen was subjected to a midline incision and bladder was exposed. In order to prevent the urine stored in the bladder on the intra urethral pressure, the urine in the bladder was compulsorily discharged out of the body. After that, a catheter was inserted into both ureters and the urine discharged from kidney was introduced outside.
(§2) The intra urethral pressure(IUP) at the urethra tract of about 0.5-1 cm distance from the neck of the bladder was measured using a microtip transducer transducer equipped with a baloon (filled with physiological saline solution) at the top end. Further, polyethylene tube was inserted into femoral artery to measure the blood pressure (BP).
Abdomen right above stomach was subjected to a midline incision and, after that, the drug to be tested suspended in 0.5% methyl cellulose (0.5% MC) was administered at the dose of 0.5ml/kg to the duodenum. […] The above administration to duodenum corresponded to oral administration as the administration into digestive organ in anethetized animals.

male rabbits [2] = assay: Action to intra urethral pressure and blood pressure, intravenous administration; format: in vivo
Experimental: as §1, §2
The drug to be tested was injected into the vein of ear every fifteen minutes and the maximum responses of the increasing action of intra urethral pressure tract and of the increasing action of blood pressure were measured at each dose.

mice (ddY-strain, male) = assay: Acute toxicity, oral, mice; format: in vivo; details: observed two weeks
Experimental: (§3) Numbers of mice (ddY-strain, male, 6-8 weeks age) and rats (SD strain, male, 6-7 weeks age) in each group were 4 and 6, respectively.
(§4) The drug to be tested was orally administered at the dose of 10 ml/kg using an oral probe to the animals which were fasted since one day before (for 16-18 hours). After giving the drug, the animals were returned to the state where both feed and water were available and the general symptom and the dead cases, if any, were checked for two weeks. The drug was suspended in physiological saline solution containing 0.5% of methylcellulose (0.5% MC) and the suspension was given to the animals by oral route.

smooth muscle of urethra = assay: Contraction of isolated smooth muscle of urethra (Magnus vessel, cumulative concentration/response curves); format: cell-based, rabbits; details: for pEC50: Oryctolagus cuniculus
Experimental: (§5) The experiment was conducted using female rabbits of 2 to 3.5 kg body weight.
(§6) The animals were killed by draining the blood out under anesthetizing with pentobarbital (30 mg/kg, by intravenous injection) and smooth muscle of urethra and femoral artery were excised. Each of the excised samples was placed in a Magnus vessel filled with a modified Krebs solution (at 37°C; under mixed gas) and both smooth muscle of urethra and femoral artery were suspended with 1 g load.
(§7) The drug to be tested was accumulated to contract the samples whereby the concentration/response curves were obtained wherefrom ED₅₀ (M) and pD₂ were calculated and the selectivity to urethra was determined.

rats (SD strain, male) = assay: Acute toxicity, oral, rats; format: in vivo; details: observed two weeks
Experimental: as §3, §4

[3] = Acute toxicity, oral, rats; format: in vivo; details: rat, in vivo, SD rats, read-out: Rats LD₅₀
Experimental: as §3, §4

α₁-adrenoceptors = assay: α₁-Adrenoceptor binding assay with [³H]-prazosin, brain membrane; parameters: species or system Rats
Experimental: Preparation of the receptor membrane was conducted as follows. Rats were decapitated, brain except cerebellum was excised, weighed, 40 times as much 50mM Tris-hydrochloric acid buffer (pH: 7.4) was added and the mixture was homogenized with a Polytron homogenizer and centrifuged for 20 minutes at 39,000 x g. Buffer solution was added to the precipitate and the resulting suspension was again centrifuged for 20 minutes. Then the precipitate was suspended in 40 volumes of Tris-hydrochloric acid buffer to prepare a receptor sample. The above operations were all conducted at 4°C.
α ₁-Adrenoceptor binding assay was conducted as a radioactive ligand using a [³H]-prazosin.
First, the receptor sample prepared as above was incubated in 50 mM Tris-hydrochloric acid buffer (pH 7.4) with [³H]-prazosin (0.2nM) at 25°C for 30 minutes. […] The mixture was allowed to stand at room temperature for not shorter than about 10 hours and the radioactivity was measured with a liquid scintillation counter to give a total binding.
The same reaction as above was conducted in the presence of 1 µM of prazosin as well and the resulting radioactivity was defined as nonspecific binding. […]
The inhibition activity of the test drug to the [³H]-prazosin binding was calculated by measuring the amount of the specific [ ³H] -prazosin binding in the presence of various concentrations of the drug. […]

femoral artery = assay: Contraction of isolated femoral artery (Magnus vessel, cumulative concentration/response curves); format: cell-based, rabbits; details: Oryctolagus cuniculus
Experimental: as §5, §6, §7

[4] = 0.1 mg/kg i.d., 10 min after administration
[5] = 0.1 mg/kg i.d., 20 min after administration
[6] = 0.1 mg/kg i.d., 30 min after administration
[7] = 0.1 mg/kg i.d., 60 min after administration
[8] = 0.1 mg/kg i.d., 90 min after administration
[9] = 0.1 mg/kg i.d., 120 min after administration
[10] = 0.1 mg/kg i.d., 180 min after administration
[11] = 0.3 mg/kg i.d., 10 min after administration
[12] = 0.3 mg/kg i.d., 20 min after administration
[13] = 0.3 mg/kg i.d., 30 min after administration
[14] = 0.3 mg/kg i.d., 60 min after administration
[15] = 0.3 mg/kg i.d., 90 min after administration
[16] = 0.3 mg/kg i.d., 120 min after administration
[17] = 0.3 mg/kg i.d., 180 min after administration

For `CS(=O)(=O)Nc1ccc(F)c([C@@H](O)CN)c1.Cl` [(49B), (R)-(-)-3'-(2-Amino-1-hydroxyethyl)-4'-fluoromethanesulfonanilide hydrochloride], the “Change(%) BP” value (male rabbits [1]; [4]) was 2.7%, the “Change(%) BP” value (male rabbits [1]; [5]) was 1.9% and the “Change(%) BP” value (male rabbits [1]; [6]) was 3.3%. The “Change(%) BP” value (male rabbits [1]; [7]) was 0.5%, the “Change(%) BP” value (male rabbits [1]; [8]) was -5.0% and the “Change(%) BP” value (male rabbits [1]; [9]) was -9.8%. For the same compound, the “Change(%) BP” value (male rabbits [1]; [10]) was -14.9%, the “Change(%) BP” value (male rabbits [1]; [11]) was 2.8% and the “Change(%) BP” value (male rabbits [1]; [12]) was 4.0%. The “Change(%) BP” value (male rabbits [1]; [13]) was 4.7%, the “Change(%) BP” value (male rabbits [1]; [14]) was 7.9** % and the “Change(%) BP” value (male rabbits [1]; [15]) was 6.5** %. The “Change(%) BP” value (male rabbits [1]; [16]) was 3.3* %, the “Change(%) BP” value (male rabbits [1]; [17]) was -10.0% and the “Change(%) IUP” value (male rabbits [1]; [4]) was 10.5%. For the same compound, the “Change(%) IUP” value (male rabbits [1]; [5]) was 11.0%, the “Change(%) IUP” value (male rabbits [1]; [6]) was 20.7% and the “Change(%) IUP” value (male rabbits [1]; [7]) was 29.4%. The “Change(%) IUP” value (male rabbits [1]; [8]) was 28.9%, the “Change(%) IUP” value (male rabbits [1]; [9]) was 30.3% and the “Change(%) IUP” value (male rabbits [1]; [10]) was 24.1%. The “Change(%) IUP” value (male rabbits [1]; [11]) was 21.5%, the “Change(%) IUP” value (male rabbits [1]; [12]) was 44.2** % and the “Change(%) IUP” value (male rabbits [1]; [13]) was 65.2* %. For the same compound, the “Change(%) IUP” value (male rabbits [1]; [14]) was 84.1** %, the “Change(%) IUP” value (male rabbits [1]; [15]) was 114.9* % and the “Change(%) IUP” value (male rabbits [1]; [16]) was 101.5** %. The “Change(%) IUP” value (male rabbits [1]; [17]) was 95.7** %, the “dose resulting in intraurethral pressure increasing action of the same grade as known amidephrine” value (male rabbits [1]; administration to digestive organ, relative to amidephrine dose) was “about one-tenth” and the “Selectivity (B/A)” value (male rabbits [2]; BP(ED30%↑) / IUP(ED150%↑), i.v.) was 5.3. For the same compound, the ED (30%) (male rabbits [2]; Oryctolagus cuniculus, iv, read-out: BP(B) [BP(ED30%↑)]) was 0.048 mg/kg, the “Mice Dead/ Total” value (mice (ddY-strain, male); 1000 mg/kg) was 0 / 4 and the “Mice Dead/ Total” value (mice (ddY-strain, male); 3000 mg/kg) was 0 / 4. The “Selectivity (B/A)” value (smooth muscle of urethra; ED₅₀ femoral artery / ED₅₀ urethra) was 0.73, the pEC50 (smooth muscle of urethra; read-out: ED₅₀ Urethra(A)) was 5.36 and the pEC50 (smooth muscle of urethra; read-out: pD₂ Urethra(A)) was 5.36. For the same compound, the “Rats Dead/ Total” value (rats (SD strain, male); 500 mg/kg) was 0 / 6, the “Rats Dead/ Total” value (rats (SD strain, male); 1000 mg/kg) was 0 / 6 and the LD50 at 336 h [3] was > 1000 mg/kg. The “inhibiting action to binding of [³H]-prazosin, stronger than amidephrine” value (α₁-adrenoceptors; relative to amidephrine) was “about twice”, the “inhibiting action to binding of [³H]-prazosin, stronger than phenylephrine” value (α₁-adrenoceptors; relative to phenylephrine) was “about five times” and the pEC50 (femoral artery; read-out: ED₅₀ Femoral Artery(B)) was 5.49. It also gave a pEC50 (femoral artery; read-out: pD₂ Femoral Artery(B)) of 5.49.
